Laboratory results as given in PMC7337247 (Critical care medicine, 2020).
Entries after “also recorded” stand apart in the source; their conditions may differ. Where two headings read alike, the source gives them in different places.

Key:
human PMN [1] = assay: PMN phagocytosis of pHrodo-labeled E. coli; type: cell-based; details: 10 μg/mL Cytochalasin D, E. coli 20:1, 30 min 37°C
BLT1 [2] = assay: fMLF-induced heterologous desensitization: LTB4-induced Ca2+ depletion; type: cell-based, human; details: fMLF 10 nM or 100 nM; 100 nM LTB4
CXCR2 [3] = assay: fMLF-induced heterologous desensitization: CXCL1-induced Ca2+ depletion; type: cell-based, human; details: pre-treatment with fMLF; 5 nM CXCL1
[4] = system: wild type bone marrow PMN; assay: fMLF desensitization of migration to KC, wild type mouse BM-PMN; type: cell-based; details: fMLF 100 nM or 1 μM for 45 min; KC 100 ng/mL; 60 min
Fpr2-KO bone marrow PMN = assay: fMLF desensitization of migration to KC, Fpr2-KO mouse BM-PMN; type: cell-based; details: fMLF 100 nM or 1 μM for 45 min; KC 100 ng/mL; 60 min
Fpr1-KO bone marrow PMN = assay: fMLF desensitization of migration to KC, Fpr1-KO mouse BM-PMN; type: cell-based; details: fMLF 100 nM or 1 μM for 45 min; KC 100 ng/mL; 60 min
human FPR1 = molecular target: T1, human FPR1 (Homo sapiens, UniProt P21462); details: cited from earlier work
T1 sequence (P21462 1-350): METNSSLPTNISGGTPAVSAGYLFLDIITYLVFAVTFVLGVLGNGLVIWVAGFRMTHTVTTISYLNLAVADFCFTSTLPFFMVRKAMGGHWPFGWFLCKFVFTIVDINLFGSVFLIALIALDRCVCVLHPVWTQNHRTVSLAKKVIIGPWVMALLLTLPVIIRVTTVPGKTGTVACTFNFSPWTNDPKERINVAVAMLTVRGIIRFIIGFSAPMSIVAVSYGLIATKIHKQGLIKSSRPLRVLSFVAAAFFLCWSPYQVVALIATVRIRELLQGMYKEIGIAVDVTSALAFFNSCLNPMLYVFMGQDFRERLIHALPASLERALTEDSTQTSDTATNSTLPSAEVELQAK

CXCR2 [5] = assay: Surface expression of CXCR2 by flow cytometry; type: cell-based, human; details: 100 nM ND6; with or without 1 μM POL7200 pretreatment
BLT1 [6] = assay: Surface expression of BLT1 by flow cytometry; type: cell-based, human; details: 100 nM ND6; with or without 1 μM POL7200 pretreatment; 3 separate experiments
human PMN [7] = details: ref [7]; cited from earlier work

Q: Which “effect on phagocytosis, positive control” value (human PMN [1]) does the source give for `C=C1[C@@H](C)[C@H]2[C@H](Cc3ccccc3)NC(=O)[C@]23[C@H](OC(C)=O)/C=C/[C@@](C)(O)C(=O)[C@@H](C)C/C=C/[C@H]3[C@@H]1O` [Cytochalasin D] here?
A: Its value is “expected suppression of phagocytosis”.

Q: What about the “effect on phagocytosis, positive control” value (human PMN [1]; listed as cytochalasin D) of the same compound?
A: Its value is “inhibited PMN phagocytosis”.

Q: For “N-formyl-methionyl-leucyl phenylalanine [fMLF]”, which “suppression of LTB4-induced Ca2+ response by fMLF pre-treatment” value (BLT1 [2]) is on record?
A: The value was “markedly inhibits Ca^2+ flux response to LTB4; also recorded: significantly reduced calcium depletion”.

Q: What about the “suppression of CXCL1-induced Ca2+ response by fMLF pre-treatment” value (CXCR2 [3]) of the same compound?
A: Its value is “strongly inhibits that response; also recorded: significantly reduced calcium depletion”.

Q: And the “effect of fMLF pre-exposure on migration toward KC, wild type” value [4]?
A: The value was “inhibited migration toward the CXC-chemokine KC; also recorded: desensitized to KC by prior fMLF exposure”.

Q: And the “effect of fMLF pre-exposure on migration toward KC, Fpr2-KO” value (Fpr2-KO bone marrow PMN)?
A: The value was “inhibited migration toward the CXC-chemokine KC; also recorded: desensitized to KC by prior fMLF exposure”.

Q: And the “effect of fMLF pre-exposure on migration toward KC, Fpr1-KO” value (Fpr1-KO bone marrow PMN)?
A: The value was “PMN migration to KC persisted; also recorded: protected from chemokine desensitization”.

Q: And the “receptor through which it acts” value (human FPR1; nanomolar concentrations, ref [17])?
A: The value was “acts exclusively through high-affinity human FPR1 receptors”.

Q: What does the source list for fMMYALF [ND6]?
A: effect on CXCR2 surface expression (CXCR2 [5]): significantly reduces expression of CXCR2; also recorded: internalized and decreased the surface expression of CXCR2 and BLT1; effect on BLT1 surface expression (BLT1 [6]): significantly reduces expression of BLT1; receptor through which it acts (human FPR1; 100 nM, ref [7]): acts exclusively at FPR1; potency as inducer of PMN Ca2+ release/chemotaxis (human PMN [7]): potent inducer of human PMN Ca^2+ release and chemotaxis; also recorded: even more potent than fMLF; also recorded: most potent human mtFP
